Laboratory results reported in ChEMBL document CHEMBL1212797, “Miltefosine efficiently eliminates Leishmania major amastigotes from infected murine dendritic cells without altering their immune functions” (Antimicrob Agents Chemother, 2010).
Calls of active or inactive are those of the source. The calls are words filed in the database; no cut-off is given here.

Columns and labels:
[1] = system: dendritic; test: Immunomodulatory effect in Leishmania major Leishmania major infected sC57BL/6 mouse bone marrow dendritic cells assessed as CD40 expression at 5 to 50 uM after 18 hrs by flow cytometry; format: functional, cell-based; details: C57BL/6
[2] = system: dendritic; test: Immunomodulatory effect in Leishmania major uninfected C57BL/6 mouse bone marrow dendritic cells assessed as CD40 expression at 5 to 50 uM after 18 hrs by flow cytometry; format: functional, cell-based
[3] = Induction of apoptosis in C57BL/6 mouse dendritic cells assessed as early apoptotic cells at 50 uM after 72 hrs using annexin V-propidium iodide and annexin V staining by flow cytometry; format: cell-based
[4] = system: dendritic; test: Immunomodulatory effect in Leishmania major Leishmania major infected sC57BL/6 mouse bone marrow dendritic cells assessed as CD86 expression at 5 to 50 uM after 18 hrs by flow cytometry; format: functional, cell-based; details: C57BL/6
[5] = system: dendritic; test: Immunomodulatory effect in uninfected C57BL/6 mouse dendritic cells assessed as IL-12p40 production after 18 hrs by ELISA; format: functional, cell-based
[6] = Induction of apoptosis in C57BL/6 mouse dendritic cells assessed as […] viable cells at 25 uM after 18 hrs using annexin V-propidium iodide and annexin V staining by flow cytometry; format: cell-based; details: read-out: Activity
[7] = Induction of apoptosis in C57BL/6 mouse dendritic cells assessed as necrotic cells at 25 uM after 18 hrs using annexin V-propidium iodide and annexin V staining by flow cytometry; format: cell-based
[8] = system: Mus musculus; test: Immunomodulatory effect in Leishmania major infected C57BL/6 mouse assessed as levels of CD11c+ and MHC-2+ in dendritic cells at 20 ug administered topically measured after 48 hrs by FACS method; format: functional, organism-based
[9] = Induction of apoptosis in C57BL/6 mouse dendritic cells assessed as necrotic cells at 5 uM after 18 hrs using annexin V-propidium iodide and annexin V staining by flow cytometry; format: cell-based
[10] = Induction of apoptosis in C57BL/6 mouse dendritic cells assessed as viable cells at 5 uM after 18 hrs using annexin V-propidium iodide and annexin V staining by flow cytometry; format: cell-based; details: read-out: Activity
[11] = Induction of apoptosis in C57BL/6 mouse dendritic cells assessed as late apoptotic cells at 25 uM after 18 hrs using annexin V-propidium iodide and annexin V staining by flow cytometry; format: cell-based
[12] = Induction of apoptosis in C57BL/6 mouse dendritic cells assessed as late apoptotic cells at 25 uM after 72 hrs using annexin V-propidium iodide and annexin V staining by flow cytometry; format: cell-based
[13] = system: Mus musculus; test: Immunomodulatory effect in Leishmania major infected C57BL/6 mouse assessed as levels of CD11c+ and MHC-2+ in dendritic cells at 200 ug administered topically measured after 48 hrs by FACS method; format: functional, organism-based
[14] = system: dendritic; test: Immunomodulatory effect in Leishmania major uninfected C57BL/6 mouse bone marrow dendritic cells assessed as CD86 expression at 5 to 50 uM after 18 hrs by flow cytometry; format: functional, cell-based
[15] = Induction of apoptosis in C57BL/6 mouse dendritic cell assessed as early apoptotic cells at 50uM after 18 hrs using annexin V-propidium iodide staining by flow cytometry; format: cell-based
[16] = system: dendritic; test: Immunomodulatory effect in Leishmania major uninfected C57BL/6 mouse bone marrow dendritic cells assessed as expression of MHC-2 at 5 to 50 uM after 18 hrs by flow cytometry; format: functional, cell-based
[17] = Induction of apoptosis in C57BL/6 mouse dendritic cells assessed as viable cells at 25 uM after 72 hrs using annexin V-propidium iodide and annexin V staining by flow cytometry; format: cell-based; details: read-out: Activity
[18] = Induction of apoptosis in C57BL/6 mouse dendritic cells assessed as late apoptotic cells at 5 uM after 18 hrs using annexin V-propidium iodide and annexin V staining by flow cytometry; format: cell-based
[19] = Cytotoxicity against C57BL/6 mouse immature bone marrow-derived dendritic cells assessed as reduction of cell survival at >100 uM after 48 hrs by propidium iodide exclusion staining based flow cytometry
[20] = Induction of apoptosis in C57BL/6 mouse dendritic cells assessed as necrotic cells at 5 uM after 72 hrs using annexin V-propidium iodide and annexin V staining by flow cytometry; format: cell-based
[21] = Induction of apoptosis in C57BL/6 mouse dendritic cells assessed as early apoptotic cells at 50 uM after 18 hrs using annexin V-propidium iodide and annexin V staining by flow cytometry; format: cell-based
[22] = Cytotoxicity against C57BL/6 mouse immature bone marrow-derived dendritic cells at 5 uM after 72 to 96 hrs by propidium iodide exclusion staining based flow cytometry; format: cell-based
[23] = species on record: Homo sapiens; test: Plasma concentration in leishmaniasis patient during last week of 4-week treatment course; format: ADME, organism-based; details: in vivo
[24] = system: dendritic; test: Immunomodulatory effect in Leishmania major infected C57BL/6 mouse dendritic cells assessed as IL-12p40 production after 18 hrs by ELISA; format: functional, cell-based
[25] = system: dendritic; test: Induction of nitric oxide release in Leishmania major amastigotes infected C57BL/6 mouse dendritic cells assessed as nitrite production after 72 hrs; format: functional, cell-based
[26] = Induction of apoptosis in C57BL/6 mouse dendritic cells assessed as viable cells at 50 uM after 72 hrs using annexin V-propidium iodide and annexin V staining by flow cytometry; format: cell-based; details: read-out: Activity
[27] = Induction of apoptosis in C57BL/6 mouse dendritic cells assessed as late apoptotic cells at 50 uM after 72 hrs using annexin V-propidium iodide and annexin V staining by flow cytometry; format: cell-based
[28] = system: dendritic; test: Immunomodulatory effect in Leishmania major infected C57BL/6 mouse dendritic cells assessed as TNF-alpha production after 18 hrs by ELISA; format: functional, cell-based
[29] = system: dendritic; test: Immunomodulatory effect in uninfected C57BL/6 mouse dendritic cells assessed as IL-12p70 production after 18 hrs by ELISA; format: functional, cell-based
[30] = system: dendritic; test: Immunomodulatory effect in Leishmania major Leishmania major infected sC57BL/6 mouse bone marrow dendritic cells assessed as MHC-2 expression at 5 to 50 uM after 18 hrs by flow cytometry; format: functional, cell-based; details: C57BL/6
[31] = system: Leishmania major; test: Antileishmenia activity against Leishmania major amastigotes infected in C57BL/6 mouse dendritic cells assessed as decrease in intracellular parasite amastigotes level at 50 uM by light microscopy; format: functional, organism-based
[32] = system: dendritic; test: Effect on antigen specific CD4+ T cells expansion by Leishmania major amastigotes infected C57BL/6 mouse dendritic cells assessed as increase in [3H]thymidine incorporation at 50 uM after 72 hrs; format: functional, cell-based
[33] = Induction of apoptosis in C57BL/6 mouse dendritic cells assessed as late apoptotic cells at 5 uM after 72 hrs using annexin V-propidium iodide and annexin V staining by flow cytometry; format: cell-based
[34] = Induction of apoptosis in C57BL/6 mouse dendritic cells assessed as necrotic cells at 25 uM after 72 hrs using annexin V-propidium iodide and annexin V staining by flow cytometry; format: cell-based
[35] = system: dendritic; test: Immunomodulatory effect in uninfected C57BL/6 mouse dendritic cells assessed as IL-10 production after 18 hrs by ELISA; format: functional, cell-based
[36] = system: dendritic; test: Immunomodulatory effect in Leishmania major infected C57BL/6 mouse dendritic cells assessed as IL-12p70 production after 18 hrs by ELISA; format: functional, cell-based
[37] = Induction of apoptosis in C57BL/6 mouse dendritic cells assessed as viable cells at 5 uM after 72 hrs using annexin V-propidium iodide and annexin V staining by flow cytometry; format: cell-based; details: read-out: Activity
[38] = Induction of apoptosis in C57BL/6 mouse dendritic cells assessed as late apoptotic cells at 50 uM after 18 hrs using annexin V-propidium iodide and annexin V staining by flow cytometry; format: cell-based
[39] = system: dendritic; test: Immunomodulatory effect in Leishmania major infected C57BL/6 mouse dendritic cells assessed as IL-10 production after 18 hrs by ELISA; format: functional, cell-based
[40] = system: dendritic; test: Immunomodulatory effect in Leishmania major uninfected C57BL/6 mouse bone marrow dendritic cells assessed as CD54 expression at 5 to 50 uM after 18 hrs by flow cytometry; format: functional, cell-based
[41] = Induction of apoptosis in C57BL/6 mouse dendritic cells assessed as necrotic cells at 50 uM after 18 hrs using annexin V-propidium iodide and annexin V staining by flow cytometry; format: cell-based
[42] = system: dendritic; test: Immunomodulatory effect in uninfected C57BL/6 mouse dendritic cells assessed as TNF-alpha production after 18 hrs by ELISA; format: functional, cell-based
[43] = Induction of apoptosis in C57BL/6 mouse dendritic cells assessed as necrotic cells at 50 uM after 72 hrs using annexin V-propidium iodide and annexin V staining by flow cytometry; format: cell-based
[44] = Induction of apoptosis in C57BL/6 mouse dendritic cells assessed as early apoptotic cells at 5 uM after 72 hrs using annexin V-propidium iodide and annexin V staining by flow cytometry; format: cell-based
[45] = system: dendritic; test: Immunomodulatory effect in Leishmania major Leishmania major infected sC57BL/6 mouse bone marrow dendritic cells assessed as CD54 expression at 5 to 50 uM after 18 hrs by flow cytometry; format: functional, cell-based; details: C57BL/6
[46] = Induction of apoptosis in C57BL/6 mouse dendritic cells assessed as early apoptotic cells at 25 uM after 18 hrs using annexin V-propidium iodide and annexin V staining by flow cytometry; format: cell-based
[47] = Induction of apoptosis in C57BL/6 mouse dendritic cells assessed as early apoptotic cells at 5 uM after 18 hrs using annexin V-propidium iodide and annexin V staining by flow cytometry; format: cell-based
[48] = system: dendritic; test: Effect on antigen specific CD8+ T cells expansion by Leishmania major amastigotes infected C57BL/6 mouse dendritic cells assessed as increase in [3H]thymidine incorporation at 50 uM after 72 hrs; format: functional, cell-based
[49] = Induction of apoptosis in C57BL/6 mouse dendritic cells assessed as viable cells at 50 uM after 18 hrs using annexin V-propidium iodide and annexin V staining by flow cytometry; format: cell-based; details: read-out: Activity

Cp [23]: 30800 ng/mL
Compound: CCCCCCCCCCCCCCCCOP(=O)([O-])OCC[N+](C)(C)C [MILTEFOSINE]
Activity [1]: inactive | Activity [2]: inactive | Activity [3]: 21.16% | Activity [4]: inactive | Activity [5]: inactive | viability at 18 h, 25 µM [6]: 58.4% | Activity [7]: 5.83% | Activity [8]: inactive | Activity [9]: 3.91% | viability at 18 h, 5 µM [10]: 84% | Activity [11]: 15.89% | Activity [12]: 22.72% | Activity [13]: inactive | Activity [14]: inactive | Activity [15]: 43.18% | Activity [16]: inactive | viability at 72 h, 25 µM [17]: 28.9% | Activity [18]: 11.41% | Activity [19]: Toxic | Activity [20]: 5.16% | Activity [21]: 23.15% | Activity [22]: Active | Activity [24]: inactive | Activity [25]: inactive | viability at 72 h, 50 µM [26]: 17.7% | Activity [27]: 54.56% | Activity [28]: inactive | Activity [29]: inactive | Activity [30]: inactive | inhibition [31]: Dose-dependent effect | Activity [32]: inactive | Activity [33]: 35.67% | Activity [34]: 6.2% | Activity [35]: inactive | Activity [36]: inactive | viability at 72 h, 5 µM [37]: 36% | Activity [38]: 18.57% | Activity [39]: inactive | Activity [40]: inactive | Activity [41]: 6.6% | Activity [42]: inactive | Activity [43]: 6.56% | Activity [44]: 23.15% | Activity [45]: inactive | Activity [46]: 19.91% | Activity [47]: 20.7% | Activity [48]: inactive | viability at 18 h, 50 µM [49]: 51.7%
